From BindingDB's records for doi:10.1021/acs.jmedchem.3c00250 (n/a, 2023) come the findings set out here.

For the assay, the target named is Protein arginine N-methyltransferase 5/MEP50 complex (Homo sapiens). The assay can be described thus: Inhibition of full-length recombinant PRMT5/full-length recombinant MEP50 (unknown origin) expressed in baculovirus infected Sf21 cells using biotinylated H4R3(Mel) peptide as substrate preincubated for 60 mins followed by substrate addition and measured for 150 minutes in the presence of SAM by methylation assay.

Usually EC50 stands for the concentration that produces a half-maximal response. For the compound `CC(=O)N1CCC(Nc2cc(C(=O)N3CC[C@H](N4CCc5ccccc5C4)[C@@H](O)C3)c(F)cn2)CC1`, the EC50 came out at 0.9 nM.
